Results reported in patent US6825230B2, “Spiro and dispiro 1,2,4-trixolane antimalarials” (Medicines for Malaria Venture MMV, priority 2002, dated 2004).
≈ marks a conversion by molar mass, not a printed value. Read-outs that look alike come from different tables or passages of the source.

What was measured:
[1] = system: Schistosoma mansoni 21-day-old schistosomules; assay: Effect on 21-day-old schistosomules in infected mice; type: in vivo; conditions: for % reduction of schistosomule growth at day 21 after per os application of 200 mg/kg, FWR (%): female worm reduction rate
Experimental: Mice were infected with 100 Schistosoma mansoni cercariae on day 21 post-treatment. Each group was treated per os with trioxolanes at a single dose of 200 mg/kg. […] All groups were killed 4 weeks after treatment and the liver and intestine were removed and separated. The liver and intestine were compressed and alive male and female worms could be seen and counted. The effect of the compounds was evaluated by mean total and female worm burden.

[2] = system: ANKA strain of P. berghei; assay: Single dose STI in vivo screen in infected mice; set-up: species or system Plasmodium berghei; conditions: for Survival (days) 10 mg/kg po: single 10 mg/kg po in 3% ethanol and 7% Tween 80; for Survival (days) 10 mg/kg po / Survival (days) 10 mg/kg SSV po / Survival (days) 10 mg/kg sc: untreated 6-7 days; for Activity (%) 10 mg/kg po: single 10 mg/kg po in 3% ethanol and 7% Tween 80 on day 1 post-infection; for Survival (days) 10 mg/kg SSV po: single 10 mg/kg po in SSV; for Activity (%) 10 mg/kg SSV po: single 10 mg/kg po in standard suspending vehicle (SSV) on day 1 post-infection; for Survival (days) 10 mg/kg sc: single 10 mg/kg sc in 3% ethanol and 7% Tween 80; for Activity (%) 10 mg/kg sc: single 10 mg/kg sc in 3% ethanol and 7% Tween 80 on day 1 post-infection
[3] = system: chloroquine-resistant K1 strain of P. falciparum; assay: In vitro antimalarial semiautomated microdilution assay ([3H]-hypoxanthine incorporation), K1 strain; type: cell-based, Plasmodium falciparum; conditions: chloroquine-resistant K1 strain, 72 h incubation; for IC50: Plasmodium falciparum, read-out: IC50 (ng/ml) K1
Method in brief: (§1)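 Semiautomated microdilution against intraerythrocytic P. falciparum from asynchronous stock cultures, with growth tracked by [3H]-hypoxanthine incorporation. IC50 values were estimated by Logit regression analysis.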

[4] = system: chloroquine-sensitive NF54 strain of P. falciparum; assay: In vitro antimalarial semiautomated microdilution assay ([3H]-hypoxanthine incorporation), NF54 strain; type: cell-based, Plasmodium falciparum; conditions: for IC50: Plasmodium falciparum
Method in brief: as §1

[5] = system: P. berghei ANKA strain; assay: Divided 3x3 mg/kg and 3x1 mg/kg po doses in infected mice; type: in vivo, Plasmodium berghei; conditions: 3 mg/kg po (SSV) on days 1, 2, 3 post-infection
Experimental: Moro NMRI male mice (Fu Albino specific pathogen free) weighing 18±2 g were infected intravenously (i.v.) with 2×10^7 P. berghei ANKA strain-infected erythrocytes from donor mice on day 0 of the experiment. From donor mice with circa 30% parasitemia, heparinized blood was taken and diluted in physiological saline to 10^8 parasitized erythrocytes per ml. An aliquot (0.2 ml) of this suspension was injected i.v. into experimental and control groups of mice. […] Throughout the experiments, mice were kept in groups of three or five animals in Makrolon type II cages in an air-conditioned animal room at 22 to 23° C.
They were administered per os (p.o.) in a total volume of 0.01 ml per gram of mouse. The activity of the compound was determined by a variety of methods outlined in subsequent sections. Survival time was also recorded, and survival to day 30 post-infection was considered to be a cure.
The second experiment consists of administration of divided 3×3 mg/kg and 3×1 mg/kg po doses administered on days 1, 2, and 3 post-infection. On day 4 post-infection, blood smears of all animals were prepared and stained with Giemsa. […] Compounds were administered orally in the SSV vehicle.

[6] = single 200 mg/kg per os, 21-day-old schistosomules
[7] = single 200 mg/kg per os, 21-day-old schistosomules, total worm reduction rate
[8] = percent reduction in parasitemia on day 3
[9] = chloroquine-sensitive NF54 strain, 72 h incubation, read-out: IC50 (ng/ml) NF54
[10] = percent reduction in parasitemia on day 3, 10 mg/kg
[11] = percent reduction in parasitemia on day 3, hydrochloride, 10 mg/kg

| Structure (SMILES) | % reduction of schistosomule growth at day 21 after per os application of 200 mg/kg, FWR (%) [1, 6] | % reduction of schistosomule growth at day 21 after per os application of 200 mg/kg, TWR (%) [1, 7] | Survival (days) 10 mg/kg po [2] | Activity (%) 10 mg/kg po [2, 8] | Survival (days) 10 mg/kg SSV po [2] | Activity (%) 10 mg/kg SSV po [2, 8] | Survival (days) 10 mg/kg sc [2] | Activity (%) 10 mg/kg sc [2, 8] | IC50 [3] | IC50 [4, 9] | % reduction of schistosomule growth at day 21 after per os application of 200 mg/kg, TWR (%) ([1]; po, 200 mg/kg, 504 h) | also measured |
| --- | --- | --- | --- | --- | --- | --- | --- | --- | --- | --- | --- | --- |
| CS(=O)(=O)N1CCC2(CC1)OOC1(O2)C2CC3CC(C2)CC1C3 (stereo not shown) [OZ56] | 66% | 69% | – | – | – | – | – | – | – | – | – | – |
| CC1(O)CCC2(CC1)OOC1(O2)C2CC3CC(C2)CC1C3 (stereo not shown) [OZ90] | 79% | 81% | – | – | – | – | – | – | – | – | – | – |
| CC(C)(C)CC(=O)N1CCC2(CC1)OOC1(O2)C2CC3CC(C2)CC1C3 (stereo not shown) [OZ111, Adamantane-2-spiro-3′-8′-(3′,3′-dimethylbutanoyl)-1′,2′,4′-trioxa-8′-azaspiro[4.5]decane] | 68% | 71% | 7.7 days | 98% | 6.3 days | 79% | 8.3 days | 99.94% | – | – | – | – |
| OC[C@H]1CC[C@]2(CC1)OOC1(O2)C2CC3CC(C2)CC1C3 (stereo partly shown) [OZ119] | 87% | – | 7.7 days | 99.29% | 8.0 days | 99.15% | 8.3 days | 99.66% | 0.83 ng/mL (≈ 2.82 nM) | 0.2 ng/mL (≈ 0.679 nM) | 88% | – |
| c1cn(C[C@H]2CC[C@]3(CC2)OOC2(O3)C3CC4CC(C3)CC2C4)cn1 (stereo partly shown) [OZ145] | 83% | – | – | – | – | – | – | – | 0.5 ng/mL (≈ 1.45 nM) | 0.76 ng/mL (≈ 2.21 nM) | 80% | Survival (days) 10 mg/kg po ([2]; 10 mg/kg): 8.3 days; Activity (%) 10 mg/kg po [2, 10]: 99.82%; Survival (days) 10 mg/kg SSV po ([2]; 10 mg/kg): 10.7 days; Activity (%) 10 mg/kg SSV po [2, 10]: 99.21%; Survival (days) 10 mg/kg sc ([2]; 10 mg/kg): 10.7 days; Activity (%) 10 mg/kg sc [2, 10]: 99.87% |
| O=[N+]([O-])c1ccc(N2CCC3(CC2)OOC2(O3)C3CC4CC(C3)CC2C4)cc1 (stereo not shown) [OZ151, Adamantane-2-spiro-3′-8′-(4′-nitrophenyl)-1′,2′,4′-trioxa-8′-azaspiro[4.5]decane] | 19% | – | 7.3 days | 71% | 7.3 days | 71% | 11.0 days | 99.63% | 3.8 ng/mL (≈ 9.83 nM) | 4 ng/mL (≈ 10.4 nM) | 19% | – |
| OC12CC3CC(C1)C1(OOC4(CCC5(CC4)OCCO5)O1)C(C3)C2 (stereo not shown) [OZ152, 5-Hydroxyadamantane-2-spiro-3′-1′,2′,4′,9′,12′-pentaoxadispiro[4.2.4.2]tetradecane] | 11% | 19% | 6.3 days | – | – | – | – | – | – | – | – | IC50 (ng/ml) K1 [3]: 3.2 ng/mL (≈ 9.46 nM); IC50 (ng/ml) NF54 ([4]; chloroquine-sensitive NF54 strain, 72 h incubation): 7.2 ng/mL (≈ 21.3 nM); Activity (%) 10 mg/kg po [2, 10]: 0%; Survival (days) 10 mg/kg SSV po ([2]; 10 mg/kg): 6.7 days; Activity (%) 10 mg/kg SSV po [2, 10]: 12%; Survival (days) 10 mg/kg sc ([2]; 10 mg/kg): 6.7 days; Activity (%) 10 mg/kg sc [2, 10]: 22% |
| NC[C@H]1CC[C@]2(CC1)OOC1(O2)C2CC3CC(C2)CC1C3 (stereo partly shown) [OZ163] | 80% | – | – | – | – | – | – | – | – | – | – | IC50 ([4]; NF54, 72 h, read-out: IC50 (ng/ml) NF54, chloroquine-sensitive NF54 strain, 72 h incubation): 0.2 ng/mL (≈ 0.682 nM); Survival (days) 10 mg/kg po ([2]; hydrochloride, 10 mg/kg): 8.0 days; Activity (%) 10 mg/kg po [2, 11]: 99.90%; Survival (days) 10 mg/kg SSV po ([2]; hydrochloride, 10 mg/kg): 9.0 days; Activity (%) 10 mg/kg SSV po [2, 11]: 99.94%; Survival (days) 10 mg/kg sc ([2]; hydrochloride, 10 mg/kg): 9.7 days; Activity (%) 10 mg/kg sc [2, 11]: 100% |
| O=C(NC[C@H]1CC[C@]2(CC1)OO[C@]1(O2)C2CC3CC(C2)CC1C3)N1CCNCC1 [OZ329] | – | – | – | – | 11.2 days | 99.97% | – | – | 0.43 ng/mL (≈ 1.06 nM) | 0.68 ng/mL (≈ 1.68 nM) | – | Survival (days) 3 mg/kg SSV po ([2]; single 3 mg/kg po in SSV): 9.2 days; Activity (%) 3 mg/kg SSV po ([2]; single 3 mg/kg po in SSV, percent reduction in parasitemia on day 3): 99.50%; Cured infected mice at the 3×3 mg/kg dose [5]: 2/5 |
| NC1CCN(C(=O)C[C@H]2CC[C@]3(CC2)OO[C@]2(O3)C3CC4CC(C3)CC2C4)CC1 [OZ339] | – | – | – | – | 10.2 days | – | – | – | – | – | – | Survival (days) 3 mg/kg SSV po ([2]; single 3 mg/kg po in SSV): 9.2 days; Cured infected mice at the 3×3 mg/kg dose [5]: 3/5 |
